Assay [1] has as its system REL-A (p65) nuclear translocation, HeLa cells. The experiment in a line: REL-A (p65) nuclear translocation assay in HeLa cells (classical NF-kB signaling, TNF-α stimulated). The conditions noted are these: Homo sapiens, 0.5 h; HeLa cells, 10 ng/mL TNF-α for 30 minutes; read-out: REL-A HeLa Transloc Assay (IC50). The assay is classed as cell-based. The protocol: (§1) Several assays were developed to profile the cellular activities of NIK inhibitors.
(§2) (2) A second set of cell assay are used to define the selectivity of NIK inhibitors toward inhibition of classical vs. non-classical NF-kB signaling and rely on quantification of the nuclear translocation of p52 (NF-kB2) and REL-A (p65) using high content cellular imaging. For the p52 (non-classical NF-kB signaling) nuclear translocation assay, HeLa cells are treated with different concentrations of compounds (0.2% DMSO final) in medium containing 10% fetal bovine serum and then stimulated with 100 ng/mL of an anti-lymphotoxin beta receptor antibody (R&D Systems) for 5 hours. In the REL-A nuclear translocation assay, HeLa cells are incubated with compounds (0.2% DMSO final) for 4.5 hours in medium containing 10% fetal bovine serum before stimulating them with 10 ng/mL tumor necrosis factor (TNF)-α (R&D Systems) for 30 minutes. Cells are fixed with 4% paraformaldehyde, permeabilized by adding 0.1% Triton X-100 in phosphate buffered saline, and then are incubated with either 2 ug/mL anti-p52 antibody (Millipore) or 400 ng/mL anti-REL-A (p65) antibody (Santa Cruz Biotechnology). Finally, the cells are incubated with an Alexa488-labeled secondary antibody (Invitrogen) and DRAQ5 DNA stain (Biostatus). Imaging is carried out using an Opera reader (Perkin Elmer) and data are analyzed with the aid of Acapella software (Perkin Elmer). The p52 or REL-Atranslocation into the nucleus is quantified by the ratio of the nuclear to cytoplasmic signal intensity. […] The compounds in listed in Table 1 have the corresponding inhibitory value (IC50 in micromolar) for NIK p52 Translocation Assay as set forth in Table 2.
(§3) The compounds in listed in Table 1 have the corresponding inhibitory values (IC50 in micromolar) for the Translocation Assays as set forth in Table 2.

Assay [2] deals with p52 (NF-kB2) nuclear translocation, HeLa cells. The experiment in a line: p52 (NF-kB2) nuclear translocation assay in HeLa cells (non-classical NF-kB signaling, anti-lymphotoxin beta receptor antibody stimulated). The assay is classed as cell-based. The conditions noted are these: Homo sapiens, 100 ng/mL anti-lymphotoxin beta receptor antibody for 5 hours, read-out: p52 HeLa Transloc Assay (IC50). The protocol:
as §1, §2, §3

The target in assay [3] is nuclear factor-kappa B (NF-kB)-inducing kinase (NIK) (Homo sapiens (Human), UniProt Q99558). The experiment in a line: NIK enzyme inhibition assay (Transcreener ADP, NIK ADP-FP). The format is biochemical. The conditions noted are these: purified NIK 0.5 nM, 10 μM ATP, fluorescence polarization; read-out: NIK ADP-FP (Ki μM).
nuclear factor-kappa B (NF-kB)-inducing kinase (NIK), sequence (Q99558 whole entry): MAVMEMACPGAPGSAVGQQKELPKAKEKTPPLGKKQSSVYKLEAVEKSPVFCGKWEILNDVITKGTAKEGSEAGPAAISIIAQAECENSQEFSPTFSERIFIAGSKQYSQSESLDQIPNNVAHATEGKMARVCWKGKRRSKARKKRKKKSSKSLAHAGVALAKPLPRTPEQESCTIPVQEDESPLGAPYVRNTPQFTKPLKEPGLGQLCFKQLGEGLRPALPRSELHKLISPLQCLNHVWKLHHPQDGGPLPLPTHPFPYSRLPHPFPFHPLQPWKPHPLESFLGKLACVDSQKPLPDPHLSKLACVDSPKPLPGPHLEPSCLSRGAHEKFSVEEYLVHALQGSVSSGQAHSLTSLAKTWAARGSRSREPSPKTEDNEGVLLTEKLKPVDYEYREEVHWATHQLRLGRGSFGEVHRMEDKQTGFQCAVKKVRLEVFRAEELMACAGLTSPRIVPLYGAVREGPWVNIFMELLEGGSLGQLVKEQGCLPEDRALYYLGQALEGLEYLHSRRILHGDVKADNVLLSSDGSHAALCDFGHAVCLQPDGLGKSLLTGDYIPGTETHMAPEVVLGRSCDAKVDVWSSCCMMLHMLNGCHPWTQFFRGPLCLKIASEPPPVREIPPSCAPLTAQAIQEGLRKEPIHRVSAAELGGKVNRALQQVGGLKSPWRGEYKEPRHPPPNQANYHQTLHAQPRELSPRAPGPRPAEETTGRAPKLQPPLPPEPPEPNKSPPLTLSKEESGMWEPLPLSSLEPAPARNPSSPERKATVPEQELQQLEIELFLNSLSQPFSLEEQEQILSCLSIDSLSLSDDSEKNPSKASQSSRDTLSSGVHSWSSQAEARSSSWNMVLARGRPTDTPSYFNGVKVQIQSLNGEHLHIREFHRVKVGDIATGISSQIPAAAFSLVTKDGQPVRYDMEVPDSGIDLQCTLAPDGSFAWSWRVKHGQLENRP

What is called IC50 is the concentration that inhibits the measured activity by half. For the compound `CN1CC[C@@](O)(C#Cc2cccc(-n3nc(C(N)=O)c4cc(F)ccc43)c2)C1=O` [Compound 13, 5-fluoro-1-[3-[2-[(3R)-3-hy-droxy-1-methyl-2-oxo-pyrroli-din-3-yl]ethynyl]phenyl] indazole-3-carboxamide], the values for the 50% inhibitory concentration (IC50) in assay [1] and in assay [2] were 20000 nM and 73 nM, respectively.

As to `CN1CC[C@@](O)(C#Cc2ccnc(-n3nc(C(N)=O)c4ccccc43)c2)C1=O` [Compound 52, 1-[4-[2-[(3R)-3-hydroxy-1-methyl-2-oxo-pyrrolidin-3-yl]ethynyl]-2-pyridyl]indazole-3-carboxamide], the IC50 is 20000 nM in assay [1] and 22.8 nM in assay [2]. The like results for `CN1CC[C@@](O)(C#Cc2cccc(-c3nc(C(N)=O)n4ccccc34)c2)C1=O` [Compound 77, 1-[3-[2-[(3R)-3-hydroxy-1-methyl-2-oxo-pyrrolidin-3-yl]ethynyl]phenyl]imidazo[1,5-a]pyridine-3-carboxamide] were, in that order, 20000 nM and 29.8 nM. The like results for `COc1ccc2c(-c3cccc(C#C[C@]4(O)CCN(C)C4=O)c3)nc(C(N)=O)n2c1` [Compound 98, 1-[3-[2-[(3R)-3-hydroxy-1-methyl-2-oxo-pyrrolidin-3-yl]ethynyl]phenyl]-6-methoxy-imidazo[1,5-a]pyridine-3-carboxamide] were, in that order, 6320 nM and 17 nM. Consider `CN1CC[C@@](O)(C#Cc2ccnc(-n3nc(C(N)=O)c4c3CCCC4)c2)C1=O` [Compound 51, 1-[4-[2-[(3R)-3-hydroxy-1-methyl-2-oxo-pyrrolidin-3-yl]ethynyl]-2-pyridyl]-4,5,6,7-tetrahydroindazole-3-carbox-amide], for which the figures for the concentration for half-maximal inhibition (IC50) in assay [1] and in assay [2] were 7190 nM and 225 nM, respectively.

As to `CN1CC[C@@](O)(C#Cc2cccc(-n3nc(C(N)=O)c4ccccc43)c2)C1=O` [Compound 1, 1-[3-[2-[(3R)-3-hydroxy-1-methyl-2-oxo-pyrrolidin-3-yl]ethynyl]phenyl]indazole-3-carboxamide], the results for the 50% inhibitory concentration (IC50) in assay [1] and in assay [2] were 20000 nM and 57 nM, respectively. The corresponding values for `CN1CC[C@@](O)(C#Cc2cccc(-c3nc(C(N)=O)c4ccccn34)c2)C1=O` [Compound 88, 3-[3-[2-[(3R)-3-hydroxy-1-methyl-2-oxo-pyrrolidin-3-yl]ethynyl]phenyl]imidazo[1,5-a]pyridine-1-carboxamide] are 20000 nM and 240 nM. The like results for `CN1CC[C@@](O)(C#Cc2cccc(-n3nc(C(N)=O)c4cccnc43)c2)C1=O` [Compound 53, 1-[3-[2-[(3R)-3-hydroxy-1-methyl-2-oxo-pyrrolidin-3-yl]ethynyl]phenyl]pyrazolo [3,4-b]pyridine-3-carboxamide] were, in that order, 20000 nM and 37.9 nM. The like results for `CN1CC[C@@](O)(C#Cc2ccnc(-n3nc(C(N)=O)c4cc(F)ccc43)c2)C1=O` [Compound 54, 5-fluoro-1-[4-[2-[(3R)-3-hy-droxy-1-methyl-2-oxo-pyrroli-din-3-yl]ethynyl]-2-pyri-diyl]indazole-3-carboxamide] were, in that order, 2000 nM and 39 nM.

One may read the Ki as the dissociation constant of the complex between target and ligand, obtained from inhibition or displacement. Take `C[C@@H]1Cc2c(C(N)=O)nn(-c3cccc(C#C[C@]4(O)CCN(C)C4=O)c3)c2C1` [Compound 194, (5R)-1-[3-[2-[(3R)-3-hydroxy-1-methyl-2-oxo-pyrrolidin-3-yl]ethynyl]phenyl]-5-methyl-5,6-dihydro-4H-cyclopenta[c]pyrazole-3-carboxamide]: the Ki in assay [3] is 0.05 nM.

Take `CN1C[C@H](O)[C@@](O)(C#Cc2cccc(-n3nc(C(N)=O)c4ccccc43)c2)C1=O` [Compound 125, 1-[3-[2-[(3S,4S)-3,4-dihydroxy-1-methyl-2-oxo-pyrroli-din-3-yl]ethynyl]phenyl]in-dazole-3-carboxamide]: the inhibition constant (Ki) in assay [3] is 19.6 nM.

Consider `CN1CC[C@@](O)(C#Cc2cccc(-n3nc(C(N)=O)c4cc(CN5CCCC5)ccc43)c2)C1=O` [Compound 48, 1-[3-[2-[(3R)-3-hydroxy-1-methyl-2-oxo-pyrrolidin-3-yl]ethynyl]phenyl]-5-(pyrro-lidine-1-ylmethyl)indazole-3-carboxamide], for which the Ki in assay [3] amounted to 64.7 nM. On to `CN1CC[C@@](O)(C#Cc2cccc(-n3nc(C(N)=O)c4cnc(N5CC[C@H](O)C5)cc43)c2)C1=O` [Compound 139, 1-[3-[2-[(3R)-3-hydroxy-1-methyl-2-oxo-pyrrolidin-3-yl]ethynyl]phenyl]-6-[(3S)-3-hydroxypyrrolidin-1-yl]pyra-zolo[4,3-c]pyridine-3-carbox-amide], for which the Ki in assay [3] is 0.39 nM. Same read-out and setting: as for `CN1CC[C@@](O)(C#Cc2cccc(-n3nc(C(N)=O)c4c3CS(=O)(=O)CC4)c2)C1=O` [Compound 68, 1-[3-[2-[(3R)-3-hydroxy-1-methyl-2-oxo-pyrrolidin-3-yl]ethynyl]phenyl]-6,6-dioxo-5,7-dihydro-4H-thiopyra-no[3,4-c]pyrazole-3-carbox-amide], the figure is 237 nM. Same read-out and setting: as for `NC(=O)c1nn(-c2cccc(C#C[C@@]3(O)CCCC3=O)c2)c2ccccc12` [Compound 115, 1-[3-[2-[(1S)-1-hydroxy-2-oxo-cyclopentyl]ethynyl]phe-nyl]indazole-3-carboxamide], the figure is 86.1 nM; as for `CN1CC[C@@](O)(C#Cc2cccc(-n3nc(C(N)=O)c4c3CCN([S@+](C)[O-])C4)c2)C1=O` [Compound 124, 1-[3-[2-[(3R)-3-hydroxy-1-methyl-2-oxo-pyrrolidin-3-yl]ethynyl]phenyl]-5-[(S)-methylsulfinyl]-6,7-dihydro-4H-pyrazolo[4,3-c]pyridine-3-carboxamide], 46.4 nM. The same measure, in the same setting: as for `CN1CC[C@@](O)(C#Cc2cccc(-n3nc(C(N)=O)c4c3C[C@]3(C)C(C4)C3(F)F)c2)C1=O` (stereo partly drawn) [Compound 50, (5aR)-5,5-difluoro-1-[3-[2-[(3R)-3-hydroxy-1-methyl-2-oxo-pyrrolidin-3-yl]ethyn-yl]phenyl]-5a-methyl-4a,6-dihydro-4H-cyclopropa[f]inda-zole-3-carboxamide], the figure is 170 nM. Regarding `NC(=O)c1nn(-c2cccc(C#C[C@]3(O)CCCC3=O)c2)c2ccccc12` [Compound 116, 1-[3-[2-[(1R)-1-hydroxy-2-oxo-cyclopentyl]ethynyl]phe-nyl]indazole-3-carboxamide], the inhibitory constant (Ki) in assay [3] was determined as 0.63 nM. As for `CN1CC[C@@](O)(C#Cc2ccnc(-n3nc(C(N)=O)c4c3CC(C)(C)[C@H](O)C4)c2)C1=O` [Compound 9, (5R)-5-hydroxy-1-[4-[2-[(3R)-3-hydroxy-1-methyl-2-oxo-pyrrolidin-3-yl]ethynyl]-2-pyridyl]-6,6-dimethyl-5,7-dihydro-4H-indazole-3-carboxamide], in assay [3], the Ki is 33.2 nM. On to `COc1cnc2c(c1)c(C(N)=O)nn2-c1cccc(C#C[C@]2(O)CCN(C)C2=O)c1` [Compound 74, 1-[3-[2-[(3R)-3-hydroxy-1-methyl-2-oxo-pyrrolidin-3-yl]ethynyl]phenyl]-5-methoxy-pyrazolo[3,4-b]pyridine-3-carboxamide], for which the values for the IC50 in assay [1] and in assay [2] were 8000 nM and 13.9 nM, respectively. As for `C[C@](O)(C#Cc1cccc(-n2nc(C(N)=O)c3ccccc32)c1)c1c[nH]nn1` [Compound 118, 1-[3-[(3S)-3-hydroxy-3-(1H-triazol-4-yl)but-1-ynyl]phenyl]indazole-3-carboxamide], in assay [3], the Ki was determined as 16.6 nM. Turning to `CN(C)C(=O)C(O)C#Cc1cccc(-n2nc(C(N)=O)c3ccccc32)c1` (centres unmarked) [Compound 163, 1-[3-[4-(dimethyalmino)-3-hydroxy-4-oxo-but-1-ynyl]phenyl]indazole-3-carboxamide], in assay [3], the inhibition constant Ki was found to be 250 nM. As to `Cc1cn(-c2ccc3c(c2)c(C(N)=O)nn3-c2cccc(C#C[C@]3(O)CCN(C)C3=O)c2)cn1` [Compound 106, 1-[3-[2-[(3R)-3-hydroxy-1-methyl-2-oxo-pyrrolidin-3-yl]ethynyl]phenyl]-5-(4-meth-ylimidazol-1-yl)indazole-3-carboxamide], the Ki in assay [3] is 0.05 nM. Still for that read-out and setting: as for `CN1CC[C@@](O)(C#Cc2cccc(-c3nc(C(N)=O)c4ccc(C(N)=O)cn34)c2)C1=O` [Compound 179, 3-[3-[2-[(3R)-3-hydroxy-1-methyl-2-oxo-pyrrolidin-3-yl]ethynyl]phenyl]imidazo [1,5-a]pyridine-1,6-dicarboxamide], the figure is 11.1 nM; as for `COC1CN(c2cnc3c(c2)c(C(N)=O)nn3-c2cccc(C#C[C@]3(O)CCN(C)C3=O)c2)C1` [Compound 183, 1-[3-[2-[(3R)-3-hydroxy-1-methyl-2-oxo-pyrrolidin-3-yl]ethynyl]phenyl]-5-(3-methoxyazetidin-1-yl) pyrazolo[3,4-b]pyridine-3-carboxamide], 0.19 nM.
